Source: patent US6599548B2, “Ambient stable beverage” (priority 2000, dated 2003)
Values after ≈ are worked out from the molar mass of the structure shown. Where two headings read alike, the source gives them in different places.

What was measured:
Type in all cases: cell-based
fungi = experiment: Fungicidal activity of pasteurisation adjuncts at 50° C. versus 30° C. (MIC50); conditions: for Importance: rating of importance as pasteurisation adjunct
Procedure: In the table the minimum inhibitory concentration (MIC) is given for each compound as well as the molecular weight (M.W.), the logPoct and a rating of its importance. […] The logPoct, that is the logarithm of the partition coefficient of the relevant compound in octanol and thus a measure of its […], was determined using […]™ software from the CHEMOFFICE ULRA ENHANCED 2000™ software package (version 5.5) that is commercially available from CambridgeSoft.

[1] = tested on: yeast Saccharomyces cerevisiae X2180-1B; experiment: Yeast growth in Ready to Drink tea (0.14% tea, pH 3.4) after 2 min at temperature, OD 600 nm at 14 days; conditions: RTD tea; for prevention of yeast growth by low levels of the adjunct: adjunct 0-12 ppm in combination with cinnamic acid 0-60 ppm
[2] = Minimum inhibitory concentration (MIC) of antimicrobials / essential oils
Source text: The minimum inhibitory concentration (MIC) is given for each compound.
In each case the respective minimum inhibitory concentration (MIC) and their specific preferred concentration is also given.

[3] = 20° C., adjunct 0-12 ppm, cinnamic acid 0-60 ppm
[4] = Table I, preferred essential oils
[5] = Table II, particularly preferred essential oils
[6] = minimum inhibitory concentration, fungicidal activity when heated to 50° C.
[7] = read-out: MIC50 in ppm (in brackets under the mM value)

| Compound | Importance (fungi) | further results |
| --- | --- | --- |
| CCCCCC(=O)OCCC(C)C [Isoamyl hexanoate] | High |  |
| O=C(c1ccccc1)C(O)c1ccccc1 (centres unmarked) [Benzoin] | 10 |  |
| CCCCCCCCCCCC(=O)OC [Methyl laurate] | High |  |
| CCCCCCCCCCOC(C)=O [Decyl acetate] | High | effect on yeast growth at low temperature [1, 3]: little effect; effect on yeast growth at low temperature ([1]; FIGS. 23, 24, adjunct alone 0-200 ppm, low temperature): little effect; prevention of yeast growth by low levels of the adjunct [1]: prevention of yeast growth; fungicidal activity at 30° C. (fungi): no fungicidal activity; fungicidal activity when heated to 50° C. (fungi): significant fungicidal activity |
| CCCCCCCCOC(=O)CCC [Octyl butyrate] | High |  |
| CC(C)c1ccc(CO)cc1 [Cumic alcohol] |  | MIC (ppm) [2, 4]: 450 ppm; MIC (ppm) [2, 5]: 450 ppm |
| CCCCCCCCCOC(C)=O [Nonyl acetate] | High |  |
| CCCCCCCCCCCCCO [Tridecanol] | High |  |
| CCCCCCC(=O)OCCCC [Butyl heptanoate] | High |  |
| C=CCOC(=O)CCC1CCCCC1 [Allyl cyclohexanepropionate] | High |  |
| CCCCCCCCCCCC=O [Lauric aldehyde] | High | MIC50 (fungi; [6]): 0.2 mM; MIC50 in ppm (in brackets under the mM value) (fungi; [6]): (36 ppm |
| C=C1CC/C=C(\C)CC[C@@H]2[C@@H]1CC2(C)C [β-Caryophylene] |  | MIC50 (fungi; [6]): 70 mM |
| CC(C)=CCC/C(C)=C\COC(=O)C(C)C [Neryl isobutyrate] | High |  |
| CC(=O)OCc1ccc2c(c1)OCO2 [Piperonyl acetate] |  | MIC [2, 4]: 242 µg/mL; MIC (ppm) [2, 5]: 242 ppm |
| CCCCCC1CCC(=O)O1 (centres unmarked) [γ-Nonanoic lactone] |  | MIC (ppm) [2, 4]: 63 ppm |
| CCCCCCCCCCCCO [Lauric alcohol] | High | effect on yeast growth at low temperature [1, 3]: little effect; prevention of yeast growth by low levels of the adjunct [1]: prevention of yeast growth; MIC50 (fungi; [6]): 0.1 mM; MIC50 in ppm (in brackets under the mM value) (fungi; [6]): (18.6 ppm |
| O=C1CCCCCCCCCCCCCCO1 [w-Pentadecalactone] |  | MIC50 (fungi; [6]): 60 mM |
| CC=CC=CC=O [Sorbic aldehyde (2,4-hexadienal)] |  | MIC (ppm) [2, 4]: 86 ppm |
| CCCCCCCCCCC(=O)OC [Methyl undecanoate] | High |  |
| CCCCCCCCCCC=CC=O [2-Tridecenal] | High | MIC50 (fungi; [7]): < 9.8 µg/mL |
| CC1(C)C2CC=C(CO)C1C2 (centres unmarked) [Myrtenol] |  | MIC (ppm) [2, 4]: 137 ppm; MIC (ppm) [2, 5]: 137 ppm |
| C=CCCCCCCCCC(=O)OCC [Ethyl 10-undecenoate] | High |  |
| CCCCCCCCCCCC(=O)O [Lauric acid] | High | MIC50 (fungi; [7]): 20 µg/mL |
| C/C(C=O)=C\c1ccccc1 [α-Methyl-trans-cinnamaldehyde] |  | MIC (ppm) [2, 4]: 58.4 ppm |
| CC(=O)CC/C=C(\C)CCC=C(C)C [Geranyl acetone] | High |  |
| CCCCCCCCCCCCC=O [Tridecanal] | High |  |
| CC1CCC(C(C)C)C(O)C1 (centres unmarked) [Neomenthol] |  | MIC (ppm) [2, 4]: 156 ppm |
| w-6-Hexadecalactone |  | MIC50 (fungi; [6]): 50 mM |

| Compound | Importance (fungi) | further results |
| --- | --- | --- |
| CCCCCOC(=O)CCCCC [Amyl hexanoate] | High |  |
| O=C(O)C=Cc1ccccc1 [Cinnamic acid] |  | MIC [2, 4]: 148 µg/mL (≈ 999 µM); MIC (ppm) [2, 5]: 148 ppm |
| CCCCCCCCCC=CC=O [2-Dodecenal] | High | MIC50 (fungi; [7]): < 9 µg/mL |
| CCCCCC(=O)OCCc1ccccc1 [Phenethyl hexanoate] | High |  |
| CCCCCCCCCC(=O)OCC [Ethyl decanoate] | High |  |
| CCCCCCCOC(=O)CCC [Heptyl butyrate] | High |  |
| methyl decenoate |  | fungicidal activity at 30° C. (fungi): no fungicidal activity; fungicidal activity when heated to 50° C. (fungi): significant fungicidal activity |
| CCCCCCCCCCOC(=O)CC [Decyl propionate] | High |  |
| CCCCCCCC=CC(=O)OCC [Ethyl 2-decenoate] | High |  |
| C=C(C)C1CC=C(C)C(OC(=O)CC)C1 (centres unmarked) [Carvyl propionate] |  | MIC50 (fungi; [6]): 5 mM |
| CCCCCCOC(=O)CCCCC [Hexyl hexanoate] | High |  |
| CCCCCCCCC(=O)OCC [Ethyl nonanoate] | High |  |
| C=CC(C)(O)CCC=C(C)CCC=C(C)C (centres unmarked) [Nerolidol] | High |  |
| CCCCCCCCCCCCC(=O)O [Tridecanoic acid] | High |  |
| CCCCCCCCCCCCCC(=O)O [Myristic acid] | High |  |
| CC=CCCCCCCCC(=O)OC [Methyl-9-undecenoate] | High |  |
| CCCC1CCCC(=O)O1 (centres unmarked) [δ-Octalactone] |  | MIC (ppm) [2, 4]: 568 ppm |
| Tolualdehyde |  | MIC (ppm) [2, 4]: 240 ppm |
| C=C(C)C1CCC(C)C(O)C1 (centres unmarked) [Dihydrocarveol] |  | MIC (ppm) [2, 4]: 540 ppm |
| CCCCCCCCC(=O)OC [Methyl nonanoate] | High |  |
| CCCCCCCCCC(=O)OC [Methyl decanoate] | High |  |
| CC(=O)OC/C=C(\C)CCC=C(C)C [Geranyl acetate] | High |  |
| CCCCCCCCCC(C)=O [2-Undecanone] | High |  |
| CCC(=O)OC/C=C(\C)CCC=C(C)C [Geranyl propionate] | High |  |
| CCCC(=O)OC/C=C(\C)CCC=C(C)C [Geranyl butyrate] | High |  |
| CC(C)C(=O)OCCOc1ccccc1 [2-Phenoxylethyl isobutyrate] | High |  |
| CCCCCCCC1CCC(=O)O1 (centres unmarked) [γ-Undecalactone] |  | MIC (ppm) [2, 4]: 28 ppm |
